Assay in all cases: MIC, broth microdilution (NCCLS)
Format in all cases: cell-based

For experiment [1], the system named is C. albicans GC3066 ATCC (Control). The note with it: Candida albicans, Mueller-Hinton II broth, 18-22 hours at 35° C.
The next experiment concerns E. coli GC1073 (tet(B)). To be noted: Escherichia coli. The gist of the method:
(§1)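 Broth microdilution per NCCLS M7-A5 in Mueller-Hinton II broth, inoculum 10^5 CFU/ml. Plates incubated 18-22 h at 35 °C in ambient air; MIC is lowest inhibitory antibiotic concentration.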

Experiment [2] deals with E. coli GC2203 (ATCC Control). The note with it: Escherichia coli, Mueller-Hinton II broth, 18-22 hours at 35° C. In short, it runs like this:
as §1

Another experiment deals with E. coli GC2270 (tet(M)). To be noted: Escherichia coli. The gist of the method:
as §1

The subject of experiment [3] is E. coli GC4559 (parent GC4560). The note with it: Escherichia coli, Mueller-Hinton II broth, 18-22 hours at 35° C. In short, it runs like this:
as §1

For experiment [4], the system named is E. coli GC4560 (IMP mutant). The note with it: Escherichia coli. In short, it runs like this: as §1
The subject of experiment [5] is E. faecalis GC2242 (Van-resistant). The note with it: Enterococcus faecalis, Mueller-Hinton II broth, 18-22 hours at 35° C. The gist of the method: as §1
The test system of experiment [6] is E. faecalis GC2267 (tet(L) + (M) + (S)). The note with it: Enterococcus faecalis. In short, it runs like this:
as §1

Experiment [7] deals with E. faecalis GC4555 (ATCC Control). To be noted: Enterococcus faecalis, Mueller-Hinton II broth, 18-22 hours at 35° C. The gist of the method: as §1
Experiment [8] has as its system H. influenzae<> GC6896 (ATCC Control). The note with it: Haemophilus influenzae, Mueller-Hinton II broth, 18-22 hours at 35° C. The gist of the method:
as §1

The subject of experiment [9] is M. catarrhalis* GC6907 (Clinical). To be noted: Moraxella catarrhalis, Mueller-Hinton II broth, 18-22 hours at 35° C. The gist of the method:
as §1

Experiment [10] has as its system S. aureus GC1079 (tet(K)). To be noted: Staphylococcus aureus, Mueller-Hinton II broth, 18-22 hours at 35° C. In short, it runs like this:
as §1

Experiment [11] concerns S. aureus GC1131 (Clinical). The note with it: Staphylococcus aureus, Mueller-Hinton II broth, 18-22 hours at 35° C. The gist of the method: as §1
Experiment [12] concerns S. aureus GC2216 (ATCC Control). To be noted: Staphylococcus aureus, Mueller-Hinton II broth, 18-22 hours at 35° C. The gist of the method:
as §1

For experiment [13], the system named is S. aureus GC4536 (Smith MP -In Vivo). The note with it: Staphylococcus aureus, Mueller-Hinton II broth, 18-22 hours at 35° C. The gist of the method: as §1
Experiment [14] relates to S. aureus GC6466 (tet(M)). To be noted: Staphylococcus aureus, Mueller-Hinton II broth, 18-22 hours at 35° C. In short, it runs like this:
as §1

Experiment [15] relates to S. aureus GC6467 (tet(M) + (K)). The note with it: Staphylococcus aureus. The gist of the method: as §1
Experiment [16] relates to S. pneumoniae* GC1894 (Clinical). The note with it: Streptococcus pneumoniae, Mueller-Hinton II broth, 18-22 hours at 35° C. The gist of the method:
as §1

Experiment [17] has as its system S. pneumoniae* GC4465 (Clinical). The note with it: Streptococcus pneumoniae, Mueller-Hinton II broth, 18-22 hours at 35° C. The gist of the method: as §1
For experiment [18], the system named is S. pyogenes* GC4563 (Clinical). To be noted: Streptococcus pyogenes, Mueller-Hinton II broth, 18-22 hours at 35° C. The gist of the method:
as §1

These results are taken from patent publication US20080064667A1, “OXAZOLE DERIVATIVES OF TETRACYCLINES” (Wyeth, priority 2003, published 2008).

In brackets after ≈: the same amount, converted by molar mass.

For the compound `CN(C)c1cc2nc(CCl)oc2c2c1C[C@H]1C[C@H]3[C@H](N(C)C)C(O)=C(C(N)=O)C(=O)[C@@]3(O)C(O)=C1C2=O` [Example 35, (6aR,7aS,8S,11aS)-2-(chloromethyl)-5,8-bis(dimethylamino)-9,11a,12-trihydroxy-11,13-dioxo-6,6a,7,7a,8,11,11a,13-octahydrotetraceno[2,1-d][1,3]oxazole-10-carboxamide], the MIC in [1] is more than 64 µg/mL; in the experiment with E. coli GC1073 (tet(B)), 32 µg/mL (≈ 60.3 µM); in experiment [2], 4 µg/mL (≈ 7.53 µM); against E. coli GC2270 (tet(M)), 16 µg/mL (≈ 30.1 µM); in experiment [3] it was 8 µg/mL (≈ 15.1 µM); in [4] it was 0.5 µg/mL (≈ 0.942 µM). In addition, the MIC was found to be 1 µg/mL (≈ 1.88 µM) in [5]; 4 µg/mL (≈ 7.53 µM) in [6]; 1 µg/mL (≈ 1.88 µM) in [7]; 2 µg/mL (≈ 3.77 µM) in [8]; 0.5 µg/mL (≈ 0.942 µM) in [9]; 4 µg/mL (≈ 7.53 µM) in experiment [10]. In addition, the MIC in experiment [11] is 0.5 µg/mL (≈ 0.942 µM); in experiment [12] it was 0.5 µg/mL (≈ 0.942 µM); in [13] it was 1 µg/mL (≈ 1.88 µM); in experiment [14], 1 µg/mL (≈ 1.88 µM); in [15], 8 µg/mL (≈ 15.1 µM); in experiment [16] it was 0.25 µg/mL (≈ 0.471 µM). For the same compound, the MIC in experiment [17] was 0.5 µg/mL (≈ 0.942 µM); in experiment [18] it was 0.25 µg/mL (≈ 0.471 µM).

With `CN(C)c1cc2nc(CN3CCCC3)oc2c2c1C[C@H]1C[C@H]3[C@H](N(C)C)C(O)=C(C(N)=O)C(=O)[C@@]3(O)C(O)=C1C2=O` [Example 37, (6aR,7aS,8S,11aS)-5,8-bis(dimethylamino)-9,11a,12-trihydroxy-11,13-dioxo-2-(pyrrolidin-1-ylmethyl)-6,6a,7,7a,8,11,11a,13-octahydrotetraceno[2,1-d][1,3]oxazole-10-carboxamide], the MIC in experiment [1] was more than 64 µg/mL; in [2], 2 µg/mL (≈ 3.54 µM); against E. coli GC2270 (tet(M)), 4 µg/mL (≈ 7.07 µM); in [3] it was 2 µg/mL (≈ 3.54 µM); in [4], 1 µg/mL (≈ 1.77 µM); in experiment [5], 2 µg/mL (≈ 3.54 µM). For the same compound, the MIC amounted to 4 µg/mL (≈ 7.07 µM) in [6]; 2 µg/mL (≈ 3.54 µM) in experiment [7]; 4 µg/mL (≈ 7.07 µM) in [8]; 1 µg/mL (≈ 1.77 µM) in experiment [9]; 4 µg/mL (≈ 7.07 µM) in experiment [10]; 4 µg/mL (≈ 7.07 µM) in experiment [11]. For the same compound, the MIC is 4 µg/mL (≈ 7.07 µM) in [12]; 4 µg/mL (≈ 7.07 µM) in experiment [13]; 4 µg/mL (≈ 7.07 µM) in experiment [14]; 8 µg/mL (≈ 14.1 µM) in experiment [15]; 1 µg/mL (≈ 1.77 µM) in [16]; 1 µg/mL (≈ 1.77 µM) in experiment [17]. Further, the MIC in [18] was 1 µg/mL (≈ 1.77 µM).

With `CCCNCc1nc2cc(N(C)C)c3c(c2o1)C(=O)C1=C(O)[C@]2(O)C(=O)C(C(N)=O)=C(O)[C@@H](N(C)C)[C@@H]2C[C@@H]1C3` [Example 38, (6aR,7aS,8S,11aS)-5,8-bis(dimethylamino)-9,11a,12-trihydroxy-11,13-dioxo-2-[(propylamino)methyl]-6,6a,7,7a,8,11,11a,13-octahydrotetraceno[2,1-d][1,3]oxazole-10-carboxamide], the MIC in experiment [1] is more than 64 µg/mL; in [2], 32 µg/mL (≈ 57.8 µM); in [3], 32 µg/mL (≈ 57.8 µM); in experiment [4] it was 8 µg/mL (≈ 14.5 µM); in [5], 16 µg/mL (≈ 28.9 µM); in experiment [6] it was 64 µg/mL (≈ 116 µM). Besides, the MIC in experiment [7] is 16 µg/mL (≈ 28.9 µM); in experiment [8] it was 64 µg/mL (≈ 116 µM); in [9], 4 µg/mL (≈ 7.23 µM); in [10], 64 µg/mL (≈ 116 µM); in experiment [11] it was 32 µg/mL (≈ 57.8 µM); in experiment [12], 32 µg/mL (≈ 57.8 µM). Also, the MIC was 16 µg/mL (≈ 28.9 µM) in experiment [13]; 32 µg/mL (≈ 57.8 µM) in experiment [14]; more than 64 µg/mL in experiment [15]; 4 µg/mL (≈ 7.23 µM) in experiment [16]; 4 µg/mL (≈ 7.23 µM) in experiment [17]; 4 µg/mL (≈ 7.23 µM) in experiment [18].

Regarding `CCCCCCOc1ccc(-c2nc3cc(N(C)C)c4c(c3o2)C(=O)C2=C(O)[C@]3(O)C(=O)C(C(N)=O)=C(O)[C@@H](N(C)C)[C@@H]3C[C@@H]2C4)cc1` [Example 32, (6aR,7aS,8S,11aS)-5,8-bis(dimethylamino)-2-[4-(hexyloxy)phenyl]-9,11a,12-trihydroxy-11,13-dioxo-6,6a,7,7a,8,11,11a,13-octahydrotetraceno[2,1-d][1,3]oxazole-10-carboxamide], the MIC (in experiment [1]; against E. coli GC1073 (tet(B)); in experiment [2]; in the experiment on E. coli GC2270 (tet(M)); in experiment [3]; in experiment [4]) was more than 64 µg/mL throughout. In addition, the MIC in experiment [5] was 64 µg/mL (≈ 97.2 µM); in [6], more than 64 µg/mL; in [7], 64 µg/mL (≈ 97.2 µM); in experiment [8], more than 64 µg/mL; in experiment [9] it was 32 µg/mL (≈ 48.6 µM); in [10], more than 64 µg/mL. The MIC in [11] was more than 64 µg/mL; in experiment [12], more than 64 µg/mL; in [13], more than 64 µg/mL; in [14], more than 64 µg/mL; in [15] it was more than 64 µg/mL; in experiment [16] it was 8 µg/mL (≈ 12.1 µM). Also, the MIC in [17] and in experiment [18] was 16 µg/mL (≈ 24.3 µM) in each case.
